Source: patent US8673938B2, “Chemical compounds” (priority 2006, dated 2014)

biological target: human 11βHSD1 enzyme (Homo sapiens (Human), UniProt P28845); assay: biochemical; conditions: read-out: % inhibition of human 11-βHSD
Sequence (P28845 whole entry): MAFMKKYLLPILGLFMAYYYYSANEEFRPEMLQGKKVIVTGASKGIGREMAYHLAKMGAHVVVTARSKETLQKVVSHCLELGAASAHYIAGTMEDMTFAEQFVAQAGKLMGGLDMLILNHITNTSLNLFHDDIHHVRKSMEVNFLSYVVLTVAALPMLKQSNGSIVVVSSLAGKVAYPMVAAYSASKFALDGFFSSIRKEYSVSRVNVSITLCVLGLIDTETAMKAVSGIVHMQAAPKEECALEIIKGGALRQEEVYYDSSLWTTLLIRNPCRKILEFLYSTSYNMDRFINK

Going from `CSc1nc(N2CC[C@@H](C(=O)O)C2)ccc1C(=O)NC1C2CC3CC(C2)CC1C3` (stereo partly drawn) [Example 77, (3R)-1-[5-(2-adamantylcarbamoyl)-6-methylsulfanyl-pyridin-2-yl]pyrrolidine-3-carboxylic acid] to `CSc1nc(N2CC[C@H](CC(=O)O)C2)ccc1C(=O)NC1C2CC3CC(C2)CC1C3` (stereo partly drawn) [Example 76, 2-[(3R)-1-[5-(2-adamantylcarbamoyl)-6-methylsulfanyl-pyridin-2-yl]pyrrolidin-3-yl]acetic acid], the inhibition at 30 µM falls from 99% to 87%.

First: CCCSc1nc(N2CCC[C@@H](CC(=O)O)C2)ccc1C(=O)N1CCC(c2cccnc2)C1 (stereo partly drawn) [Example 113, 2-[(3S)-1-[6-propylsulfanyl-5-(3-pyridin-3-ylpyrrolidine-1-carbonyl)pyridin-2-yl]-3-piperidyl]acetic acid]
Second: O=C(O)C[C@@H]1CCCN(c2ccc(C(=O)N3CCC(c4cccnc4)C3)c(SC3CCCC3)n2)C1 (stereo partly drawn) [Example 127, 2-[(3S)-1-[6-cyclopentylsulfanyl-5-(3-pyridin-3-ylpyrrolidine-1-carbonyl)pyridin-2-yl]-3-piperidyl]acetic acid]
The inhibition at 30 µM of the first is lower: 90% for the first, 96% for the second.

Compared with `O=C(O)C[C@@H]1CCCN(c2ccc(C(=O)NC3CCCCC3)c(SCCc3cccnc3)n2)C1` [compound 131, 2-[(3S)-1-[5-(cyclohexyl-carbamoyl)-6-(2-pyridin-3-ylethylsulfanyl)pyridin-2-yl]-3-piperidyl] acetic acid], `O=C(O)C[C@H]1CCCN(c2ccc(C(=O)NC3CCCCC3)c(SCCc3ccccc3)n2)C1` [Example 129, 2-[(3R)-1-[5-(cyclohexylcarbamoyl)-6-phenethylsulfanyl-pyridin-2-yl]-3-piperidyl]acetic acid] is lower in inhibition at 30 µM: 91% for the first, 82% for the second.

`O=C(O)C[C@@H]1CCN(c2ccc(C(=O)N[C@H]3C4CC5CC3C[C@](OC(F)F)(C5)C4)c(SC3CCCCC3)n2)C1` [Example 175, 2-[(3S)-1-[6-Cyclohexylsulfanyl-5-[[(2r,5s)-5-(difluoromethoxy)-2-adamantyl]carbamoyl]pyridin-2-yl]pyrrolidin-3-yl]acetic acid] and `O=C(N[C@H]1C2CC3CC1C[C@](OC(F)F)(C3)C2)c1ccc(N2CC[C@@H](C(=O)O)C2)nc1SC1CCCC1` [Example 182, (3R)-1-[6-cyclopentylsulfanyl-5-[[(2r,5s)-5-(difluoromethoxy)-2-adamantyl]carbamoyl]pyridin-2-yl]pyrrolidine-3-carboxylic acid] are the same in inhibition at 30 µM: 91% for the first, 91% for the second.

Going from `CCCSc1nc(N[C@H]2C3CC4CC2C[C@@](C(=O)O)(C4)C3)ccc1C(=O)NC1CCCCC1` [Example 10, (3R,5S)-4-[[5-(cyclohexylcarbamoyl)-6-propylsulfanyl-pyridin-2-yl]amino]adamantane-1-carboxylic acid] to `CCCSc1nc(N2CCC[C@H]2C(=O)O)ccc1C(=O)NC1CCCCC1` [Example 27, (2S)-1-[5-(cyclohexylcarbamoyl)-6-propylsulfanyl-pyridin-2-yl]pyrrolidine-2-carboxylic acid], the inhibition at 30 µM rises from 88% to 94%.

First: O=C(O)C[C@@H]1CCCN(c2ccc(C(=O)NC3CCCCC3)c(NCCc3ccccc3)n2)C1 [compound 152, 2-[(3S)-1-[5-(cyclohexylcarbamoyl)-6-(phenethylamino)pyridin-2-yl]-3-piperidyl]acetic acid]
Second: O=C(O)C[C@@H]1CCCN(c2ccc(C(=O)NC3CCCCC3)c(N3CCN(S(=O)(=O)c4ccccc4)CC3)n2)C1 [compound 149, 2-[(3S)-1-[6-[4-(benzenesulfonyl)piperazin-1-yl]-5-(cyclohexyl-carbamoyl)pyridin-2-yl]-3-piperidyl]acetic acid]
The inhibition at 30 µM of the first is lower: 81% for the first, 83% for the second.

`CCCSc1nc(N2CC[C@H](CC(=O)O)C2)ccc1C(=O)NC1C2CC3CC(C2)CC1C3` (stereo partly drawn) [Example 64, 2-[(3R)-1-[5-(2-adamantylcarbamoyl)-6-propylsulfanyl-pyridin-2-yl]pyrrolidin-3-yl]acetic acid] showed an inhibition at 30 µM of 89%.
